Laboratory results taken from ChEMBL document CHEMBL1135116, “Heterocyclic nucleoside analogues: design and synthesis of antiviral, modified nucleosides containing isoxazole heterocycles” (Bioorg Med Chem Lett, 2002).
In brackets after ≈: the same amount, converted by molar mass.

Key:
Coxsackievirus B3 [1] = assay: Tested for its anti-polio activity against Coxsackie B virus type-3; type: functional, organism-based; conditions: Enterovirus B
Coxsackievirus B3 [2] = assay: Selectivity index as the ratio of CC50/EC50 against Coxsackie B virus type-3; type: functional
[3] = test system: Vesicular stomatitis virus; assay: Selectivity index as the ratio of CC50/EC50 against Vesicular stomatitis virus; type: functional
[4] = test system: Vesicular stomatitis virus; assay: Tested for its anti-polio activity against Vesicular stomatitis virus; type: functional, organism-based

SMILES	EC50 (Coxsackievirus B3 [1])	Selectivity index (Coxsackievirus B3 [2])	Selectivity index [3]	EC50 [4]
NC(=O)c1ncn([C@@H]2O[C@H](CO)[C@@H](O)[C@H]2O)n1 [RIBAVIRIN]	92.5 µg/mL (≈ 379 µM)	5.58	27.26	15.6 µg/mL (≈ 64 µM)
Cc1cn(Cc2cc([C@H](Cc3ccccc3)NC(=O)OC(C)(C)C)no2)c(=O)n(C(=O)c2ccccc2)c1=O	10.6 µg/mL (≈ 20 µM)	2.46	3.29	7.94 µg/mL (≈ 15 µM)
CC(C)[C@H](NC(=O)OC(C)(C)C)c1cc(Cn2ccc(=O)n(C(=O)c3ccccc3)c2=O)on1	98.1 µg/mL (≈ 209 µM)	1.02	1.25	80 µg/mL (≈ 171 µM)
